Tests used:
[1] = Venous thrombosis: venous stasis under hypercoagulation (Wessler), thrombus removed and weighed; type: in vivo, male Wistar rats; conditions: Rattus norvegicus, po, suspension in PEG 400, thrombosis induced 4 hours after treatment; for inhibition in vivo at 3 mg/kg: 3 mg/kg administered orally; for inhibition in vivo at 12.5 mg/kg: 12.5 mg/kg administered orally
Protocol: A venous stasis under hypercoagulation is produced according to the technique described by WESSLER et al. (J. Applied Physiol. 1959, p. 943-946). As in the technique described by J. HAUPMAN et al. (Thrombosis and Haemostasis 43(2), 1980, p. 118), the hypercoagulant used is a solution of activated factor X (Xa) supplied by Flow Laboratories (71 Knat per 12.5 ml of physiological serum).
The study is performed on unfasted male Wistar rats weighing 250 to 280 g, divided into groups of 10 animals each. The products to be tested are administered orally as a suspension in PEG 400. A thrombosis is induced 4 hours after this treatment and the thrombus formed is removed and weighed.
The results obtained at doses of 3 mg/kg or 12.5 mg/kg, administered orally, have been collated in Table II. The results obtained with the known products of the above-mentioned prior art have also been collated in this Table.

[2] = as above; type: in vivo, male Wistar rats; conditions: 50 mg/kg administered orally

N#Cc1ccc(S[C@@H]2SC[C@@H](O)[C@H](O)[C@H]2O)cc1 [Example 1, 4-cyanophenyl 1,5-dithio-β-D-xylopyranoside]
inhibition in vivo at 3 mg/kg [1]: 53%
inhibition in vivo at 12.5 mg/kg [1]: 90%

CC(=O)O[C@@H]1[C@@H](OC(C)=O)[C@H](Sc2ccc(C#N)cc2)SC[C@H]1OC(C)=O [Example 1a, 4-cyanophenyl 2,3,4-tri-O-acetyl-1,5-dithio-β-D-xylopyranoside]
inhibition in vivo at 3 mg/kg [1]: 30%
inhibition in vivo at 12.5 mg/kg [1]: 90%

O=[N+]([O-])c1ccc(S[C@@H]2SC[C@@H](O)[C@H](O)[C@H]2O)cc1 [Example 2, 4-nitrophenyl 1,5-dithio-β-D-xylopyranoside]
inhibition in vivo at 3 mg/kg [1]: 35%
inhibition in vivo at 12.5 mg/kg [1]: 78%

O[C@@H]1[C@@H](O)[C@H](Sc2ccc3ccccc3c2)SC[C@H]1O [Example 3, 2-naphthalenyl 1,5-dithio-β-D-xylopyranoside]
inhibition in vivo at 12.5 mg/kg [1]: 38%

O[C@@H]1[C@@H](O)[C@H](Sc2ccc(C(F)(F)F)cc2)SC[C@H]1O [Example 4, 4-trifluoromethylphenyl 1,5-dithio-β-D-xylopyranoside]
inhibition in vivo at 12.5 mg/kg [1]: 66%

N#Cc1cccc(S[C@@H]2SC[C@@H](O)[C@H](O)[C@H]2O)c1 [Example 5, 3-cyanophenyl 1,5-dithio-β-D-xylopyranoside]
inhibition in vivo at 3 mg/kg [1]: 28%
inhibition in vivo at 12.5 mg/kg [1]: 79.5%

N#Cc1ccccc1S[C@@H]1SC[C@@H](O)[C@H](O)[C@H]1O [Example 6, 2-cyanophenyl 1,5-dithio-β-D-xylopyranoside]
inhibition in vivo at 3 mg/kg [1]: 35%
inhibition in vivo at 12.5 mg/kg [1]: 88.6%

O=[N+]([O-])c1ccccc1S[C@@H]1SC[C@@H](O)[C@H](O)[C@H]1O [Example 7, 2-nitrophenyl 1,5-dithio-β-D-xylopyranoside]
inhibition in vivo at 3 mg/kg [1]: 33%
inhibition in vivo at 12.5 mg/kg [1]: 96.7%

N#Cc1ccc2cc(S[C@@H]3SC[C@@H](O)[C@H](O)[C@H]3O)ccc2c1 [Example 8, 2-(6-cyanonaphthalenyl) 1,5-dithio-β-D-xylopyranoside]
inhibition in vivo at 3 mg/kg [1]: 31%
inhibition in vivo at 12.5 mg/kg [1]: 94.7%

O[C@@H]1[C@@H](O)[C@H](Sc2ccccc2)SC[C@H]1O [Example 9, phenyl 1,5-dithio-β-D-xylopyranoside]
inhibition in vivo at 12.5 mg/kg [1]: 11%
% inhibition at 50 mg/kg (footnote) [2]: 82%

COc1cc(S[C@@H]2SC[C@@H](O)[C@H](O)[C@H]2O)cc(OC)c1OC [Example 10, 3,4,5-trimethoxyphenyl 1,5-dithio-β-D-xylopyranoside]
inhibition in vivo at 12.5 mg/kg [1]: 36.5%

COc1cc(S[C@@H]2SC[C@@H](OC(C)=O)[C@H](OC(C)=O)[C@H]2OC(C)=O)cc(OC)c1OC [Example 10a, 3,4,5-trimethoxyphenyl 2,3,4-tri-O-acetyl-1,5-dithio-β-D-xylopyranoside]
inhibition in vivo at 12.5 mg/kg [1]: 62%

CC(=O)c1ccc(S[C@@H]2SC[C@@H](O)[C@H](O)[C@H]2O)cc1 [Example 11, 4-acetylphenyl 1,5-dithio-β-D-xylopyranoside]
inhibition in vivo at 3 mg/kg [1]: 47%
inhibition in vivo at 12.5 mg/kg [1]: 98.3%

O=[N+]([O-])c1cccc(S[C@@H]2SC[C@@H](O)[C@H](O)[C@H]2O)c1 [Example 12, 3-nitrophenyl 1,5-dithio-β-D-xylopyranoside]
inhibition in vivo at 12.5 mg/kg [1]: 69%

O[C@@H]1[C@@H](O)[C@H](Sc2ccccc2C(F)(F)F)SC[C@H]1O [Example 13, 2-trifluoromethylphenyl 1,5-dithio-β-D-xylopyranoside]
inhibition in vivo at 12.5 mg/kg [1]: 23%

N#Cc1ccc(-c2ccc(S[C@@H]3SC[C@@H](O)[C@H](O)[C@H]3O)cc2)cc1 [Example 14, 4-(4-cyanophenyl)phenyl 1,5-dithio-β-D-xylopyranoside]
inhibition in vivo at 3 mg/kg [1]: 27%
inhibition in vivo at 12.5 mg/kg [1]: 86%

N#Cc1ccc(S[C@@H]2SC[C@@H](O)[C@H](O)[C@H]2O)c(C#N)c1 [Example 16, 2,4-dicyanophenyl 1,5-dithio-β-D-xylopyranoside]
inhibition in vivo at 3 mg/kg [1]: 42.5%
inhibition in vivo at 12.5 mg/kg [1]: 99.5%

CC(=O)O[C@@H]1[C@@H](OC(C)=O)[C@H](Sc2ccc(C#N)cc2C#N)SC[C@H]1OC(C)=O [Example 16a, 2,4-dicyanophenyl 2,3,4-tri-O-acetyl-1,5-dithio-β-D-xylopyranoside]
inhibition in vivo at 12.5 mg/kg [1]: 72.8%

N#Cc1cc(C#N)c(S[C@@H]2SC[C@@H](O)[C@H](O)[C@H]2O)c(C#N)c1 [Example 17, 2,4,6-tricyanophenyl 1,5-dithio-β-D-xylopyranoside]
inhibition in vivo at 3 mg/kg [1]: 8%
inhibition in vivo at 12.5 mg/kg [1]: 40%

Nc1ccc(S[C@@H]2SC[C@@H](O)[C@H](O)[C@H]2O)cc1 [Example 18, 4-aminophenyl 1,5-dithio-β-D-xylopyranoside]
inhibition in vivo at 3 mg/kg [1]: 30%
inhibition in vivo at 12.5 mg/kg [1]: 93%

CC(=O)Nc1ccc(S[C@@H]2SC[C@@H](O)[C@H](O)[C@H]2O)cc1 [Example 19, 4-acetamidophenyl 1,5-dithio-β-D-xylopyranoside]
inhibition in vivo at 3 mg/kg [1]: 61%
inhibition in vivo at 12.5 mg/kg [1]: 93%

CC(=O)Nc1ccc(S[C@@H]2SC[C@@H](OC(C)=O)[C@H](OC(C)=O)[C@H]2OC(C)=O)cc1 [Example 19a, 4-acetamidophenyl 2,3,4-tri-O-acetyl-1,5dithio-β-D-xylopyranoside]
inhibition in vivo at 3 mg/kg [1]: 66%

O=C(c1ccc(S[C@@H]2SC[C@@H](O)[C@H](O)[C@H]2O)cc1)C(F)(F)F [Example 20, 4-trifluoroacetylphenyl 1,5-dithio-β-D-xylopyranoside]
inhibition in vivo at 3 mg/kg [1]: 49%

Nc1cccc(S[C@@H]2SC[C@@H](O)[C@H](O)[C@H]2O)c1 [Example 21, 3-aminophenyl 1,5-dithio-β-D-xylopyranoside]
inhibition in vivo at 3 mg/kg [1]: 31%

N#Cc1ccc(O[C@@H]2SC[C@@H](O)[C@H](O)[C@H]2O)cc1 [Example 22, 4-cyanophenyl 5-thio-β-D-xylopyranoside]
inhibition in vivo at 3 mg/kg [1]: 57%

CC(=O)O[C@@H]1[C@@H](OC(C)=O)[C@H](OC(C)=O)CS[C@H]1Oc1ccc(C#N)cc1 [Example 22a, 4-cyanophenyl 2,3,4-tri-O-acetyl-5-thio-β-D-xylopyranoside]
inhibition in vivo at 3 mg/kg [1]: 66%

O=[N+]([O-])c1ccc(O[C@@H]2SC[C@@H](O)[C@H](O)[C@H]2O)cc1 [Example 23, 4-nitrophenyl 5-thio-β-D-xylopyranoside]
inhibition in vivo at 3 mg/kg [1]: 37.5%
inhibition in vivo at 12.5 mg/kg [1]: 94%

CC(=O)O[C@@H]1[C@@H](OC(C)=O)[C@H](OC(C)=O)CS[C@H]1Oc1ccc([N+](=O)[O-])cc1 [Example 23a, 4-nitrophenyl 2,3,4-tri-O-acetyl-5-thio-β-D-xylopyranoside]
inhibition in vivo at 3 mg/kg [1]: 44%

CC(=O)c1ccc(O[C@@H]2SC[C@@H](O)[C@H](O)[C@H]2O)cc1 [Example 24, 4-acetylphenyl 5-thio-β-D-xylopyranoside]
inhibition in vivo at 3 mg/kg [1]: 55%
inhibition in vivo at 12.5 mg/kg [1]: 100%

CC(=O)c1cccc(O[C@@H]2SC[C@@H](O)[C@H](O)[C@H]2O)c1 [Example 25, 3-acetylphenyl 5-thio-β-D-xylopyranoside]
inhibition in vivo at 3 mg/kg [1]: 44.5%

CC(=O)O[C@@H]1[C@@H](OC(C)=O)[C@H](OC(C)=O)CS[C@H]1Oc1cccc(C(C)=O)c1 [Example 25a, 3-acetylphenyl 2,3,4-tri-O-acetyl-5-thio-β-D-xylopyranoside]
inhibition in vivo at 3 mg/kg [1]: 52%

N#Cc1ccccc1O[C@@H]1SC[C@@H](O)[C@H](O)[C@H]1O [Example 26, 2-cyanophenyl 5-thio-β-D-xylopyranoside]
inhibition in vivo at 3 mg/kg [1]: 63.5%
inhibition in vivo at 12.5 mg/kg [1]: 96%

N#Cc1cccc(O[C@@H]2SC[C@@H](O)[C@H](O)[C@H]2O)c1 [Example 27, 3-cyanophenyl 5-thio-β-D-xylopyranoside]
inhibition in vivo at 3 mg/kg [1]: 66%
inhibition in vivo at 12.5 mg/kg [1]: 98%

CC(=O)O[C@@H]1[C@@H](OC(C)=O)[C@H](OC(C)=O)CS[C@H]1Oc1cccc(C#N)c1 [Example 27a, 3-cyanophenyl 2,3,4-tri-O-acetyl-5-thio-β-D-xylopyranoside]
inhibition in vivo at 3 mg/kg [1]: 57%

O=[N+]([O-])c1ccccc1O[C@@H]1SC[C@@H](O)[C@H](O)[C@H]1O [Example 28, 2-nitrophenyl 5-thio-β-D-xylopyranoside]
inhibition in vivo at 3 mg/kg [1]: 51%
inhibition in vivo at 12.5 mg/kg [1]: 94%

CC(=O)c1ccccc1O[C@@H]1SC[C@@H](O)[C@H](O)[C@H]1O [Example 29, 2-acetylphenyl 5-thio-β-D-xylopyranoside]
inhibition in vivo at 3 mg/kg [1]: 26%

N#Cc1ccc2cc(O[C@@H]3SC[C@@H](O)[C@H](O)[C@H]3O)ccc2c1 [Example 30, 2-(6-cyanonaphthalenyl) 5-thio-β-D-xylopyranoside]
inhibition in vivo at 3 mg/kg [1]: 51%

N#Cc1c(O[C@@H]2SC[C@@H](O)[C@H](O)[C@H]2O)ccc2ccccc12 [Example 31, 2-(1-cyanonaphthalenyl) 5-thio-β-D-xylopyranoside]
inhibition in vivo at 3 mg/kg [1]: 28%

CC(=O)O[C@@H]1[C@@H](OC(C)=O)[C@H](OC(C)=O)CS[C@H]1Oc1ccc2ccccc2c1C#N [Example 31a, 2-(1-cyanonaphthalenyl) 2,3,4-tri-O-acetyl-5-thio-β-D-xylopyranoside]
inhibition in vivo at 3 mg/kg [1]: 44.5%

Source: patent US5101048A, “β-D-phenylthioxylosides, their method of preparation and their use as therapeutic agents” (Fournier Industrie et Sante, priority 1988, dated 1992)
